Measurements taken from ChEMBL document CHEMBL1201862, “PubChem BioAssay data set” (2004).
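The compound was tested at five concentrations on cells cultured in 96-well plates, with a 48-hour exposure period. The concentration for 50% growth inhibition is given as GI50.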 The source made the active and inactive calls. Rule as the data show it: active = GI50 up to about 1.1 µM and inactive = higher.

How the values were obtained:
Assay in all cases: DTP human tumour cell line panel, 48 h
SNB-19 = tested on: SNB-19
BT-549 = tested on: BT-549
OVCAR-8 = tested on: OVCAR-8
ACHN = tested on: ACHN
CAKI-1 = tested on: CAKI-1
OVCAR-5 = tested on: OVCAR-5
SF-539 = tested on: SF-539
K562 = tested on: K562
OVCAR-4 = tested on: OVCAR-4
OVCAR-3 = tested on: OVCAR-3
MDA-MB-435 = tested on: MDA-MB-435
786-0 = tested on: 786-0
HOP-92 = tested on: HOP-92
RPMI-8226 = tested on: RPMI-8226
HL-60 = tested on: HL-60
HCT-116 = tested on: HCT-116
EKVX = tested on: EKVX
UACC-257 = tested on: UACC-257
NCI-H226 = tested on: NCI-H226
HOP-62 = tested on: HOP-62

Measured: GI50

O=C(O)c1cc(C(=O)O)cc(N2C(=O)c3ccccc3C2=O)c1
inactive: SNB-19 > 100 µM | BT-549 > 100 µM | OVCAR-8 > 100 µM | ACHN > 100 µM | CAKI-1 > 100 µM | OVCAR-5 > 100 µM | SF-539 > 100 µM | K562 > 100 µM | OVCAR-4 > 100 µM | OVCAR-3 > 100 µM | MDA-MB-435 > 100 µM | 786-0 > 100 µM | HOP-92 > 100 µM | RPMI-8226 > 100 µM | HL-60 > 100 µM | HCT-116 > 100 µM | EKVX > 100 µM | UACC-257 > 100 µM | NCI-H226 > 100 µM | HOP-62 > 100 µM

c1ccc2c(c1)CN1CCCC1CN2 (stereo not given)
inactive: SNB-19 > 100 µM | BT-549 > 100 µM | OVCAR-8 > 100 µM | ACHN > 100 µM | CAKI-1 > 100 µM | OVCAR-5 > 100 µM | SF-539 > 100 µM | K562 > 100 µM | OVCAR-4 > 100 µM | OVCAR-3 > 100 µM | MDA-MB-435 > 100 µM | 786-0 > 100 µM | HOP-92 > 100 µM | RPMI-8226 > 100 µM | HL-60 > 100 µM | HCT-116 > 100 µM | EKVX > 100 µM | UACC-257 > 100 µM | NCI-H226 > 100 µM | HOP-62 > 100 µM

Cc1ccc(C2CC(=O)CC(c3ccc(C)cc3)C23C(=O)NC(=O)NC3=O)cc1 (stereo not given)
inactive: SNB-19 > 100 µM | BT-549 > 100 µM | OVCAR-8 > 100 µM | ACHN > 100 µM | CAKI-1 > 100 µM | OVCAR-5 > 100 µM | SF-539 > 100 µM | K562 40.4 µM | OVCAR-4 71.1 µM | OVCAR-3 > 100 µM | MDA-MB-435 > 100 µM | 786-0 > 100 µM | HOP-92 > 100 µM | RPMI-8226 > 100 µM | HL-60 > 10 µM | HCT-116 > 100 µM | EKVX > 100 µM | UACC-257 > 100 µM | NCI-H226 > 100 µM | HOP-62 28.9 µM

Cc1ccc(NC(=O)c2cc(S(=O)(=O)Nc3nc4cccnc4[nH]3)c(SSc3cc(Cl)c(C(=O)Nc4ccc(C)cc4)cc3S(=O)(=O)Nc3nc4cccnc4[nH]3)cc2Cl)cc1
inactive: SNB-19 > 100 µM | BT-549 > 100 µM | OVCAR-8 > 100 µM | ACHN > 100 µM | CAKI-1 > 100 µM | OVCAR-5 > 100 µM | SF-539 > 100 µM | K562 > 100 µM | OVCAR-4 > 100 µM | OVCAR-3 > 100 µM | MDA-MB-435 > 100 µM | 786-0 > 100 µM | HOP-92 > 100 µM | RPMI-8226 > 100 µM | HL-60 > 100 µM | HCT-116 > 100 µM | EKVX > 100 µM | UACC-257 > 100 µM | NCI-H226 > 100 µM | HOP-62 > 100 µM
